Entries after “also recorded” stand apart in the source; their conditions may differ.
Columns and labels:
[1] = test system: CD11b+ APCs from liver-draining LNs and liver Kupffer cells; experiment: Suppression of antigen presentation by APCs by liver iNKT cells from treated mice; format: cell-based, mouse; conditions: APCs from untreated mice, FIG. 9
Text: (§1) Next the mechanisms of disease suppression were investigated.

[2] = test system: iNKT cells; experiment: Flow cytometry of iNKT cells (αGalCer/CD1d tetramer stained) from treated NOD.c3c4 mice; format: in vivo, mouse
Text: FIG. 3 illustrates the effect of treatment with αGalCer (KRN7000)/CD1d-coated NPs vs uncoated NPs on the CD4/CD8 phenotype of liver (top) and splenic (bottom) iNKT cells (stained with αGalCer (KRN7000)/CD1d tetramers).
FIG. 4 illustrates the effect of treatment with αGalCer (KRN7000)/CD1d-coated NPs vs uncoated NPs on the levels of PD1, CD49d, CD69 and LAG3 in liver iNKT cells (stained with αGalCer (KRN7000)/CD1d tetramers).

[3] = test system: spontaneous PBC-like disease in NOD.c3c4 mice; experiment: Treatment of spontaneous PBC-like disease in NOD.c3c4 mice; format: in vivo, mouse; conditions: FIG. 2
Text: FIG. 2 illustrates the effect of treatment with αGalCer (KRN7000)/CD1d-coated NPs vs soluble KRN7000 or uncoated NPs on readouts of PBC in NOD.c3c4 mice. CBD, Common Bile Duct.

[4] = test system: liver iNKT cells, Kupffer cells and B-lymphocytes; experiment: Spinning-disk confocal intravital microscopy of liver in Cxcr6GFP/+ Ifng-Delta-ARE+/- (NOD×B6) F1 mice; format: in vivo, mouse
Text: To get further insights into downstream cellular targets, spinning-disk confocal intravital microscopy was used to track αGalCer/CD1d-NP-induced iNKT cells, Kuppfer cells, and B-lymphocytes in the livers of treated and untreated Ifng-Delta-ARE^+/− (NOD×B6) F1 mice, which also develop spontaneous PBC-like disease. To track iNKT cells in vivo, Cxcr6^GFP/+ mice were used, in which 60-80% of liver eGFP+ cells are iNKT cells, the remainder being NK and T-cells (Geissmann et al., 2005; Liew et al., 2017). In sterile injury in the liver, recognition of endogenous glycolipid ligands on endothelial cells, Kupffer cells and other CD1d-expressing liver cells by iNKT cells result in the conversion of proinflammatory CCR2+ Ly6Chi monocytes into regulatory CX3CR1+ Ly6Clow monocytes, a process that is driven by iNKT-cell-derived IL-4. […] Although there were similar numbers of B-cells in the liver of untreated mice, they […] in interactions with Cxcr6+ cells to the same extent. […] See Lee, W. Y., et al. (2010). “An intravascular immune response to Borrelia burgdorferi involves Kupffer cells and iNKT cells” Nat. Immunol. 11, 295-302.

[5] = test system: NOD.c3c4.scid mice; experiment: Transfer of disease protection by liver iNKT cells to NOD.c3c4.scid mice reconstituted with diseased splenocytes; format: in vivo, mouse; conditions: vs liver iNKT cells from control NOD.c3c4 donors; FIG. 10
Text: as §1

[6] = test system: liver iNKT cells; experiment: RNA sequencing (RNAseq) of liver iNKT cells sorted from treated vs. untreated NOD.c3c4 mice; format: in vivo, mouse
Experimental: FIG. 5 illustrates normalized RNA expression counts (±SEM) for iNKT-relevant genes in the liver iNKT cells of NOD.c3c4 mice treated with αGalCer (KRN7000)/CD1d-NPs vs. control NOD.c3c4 mice.
To investigate this, RNA sequencing (RNAseq) studies of liver iNKT cells sorted from αGalCer/CD1d-NP-treated vs. untreated NOD.c3c4 mice was performed. […] When considering genes known to be expressed in various iNKT cell subsets (Gapin, L. (2016). “Development of invariant natural killer T cells” Curr. Opin. Immunol. 39, 68-74) including iNKT1 (Zbtb16 (PLZF)-low, Tbx21 (Tbet)+, Gata3−, Rorc (RORgt)−, Foxp3−, Maf−, Cd24−, Cd44+, Klrb1 (NK1.1)+, Ifbg+, IL2−, Il4+, Il17−, Il10−, Il21−, Il2rb (Cd122)+, Mirlet7 (LET-7)+, Znf683 (HOBIT)-high), iNKT2 (Zbtb16-high, Tbx21−, Gata3+, Rorc−, Maf−, Foxp3−, Cd24−, Cd44+, Klrb1−, Ifng−, Il2−, Il4+, Il17−, Il10−, Il21−, Il17rb+, Tnfsf11 (RANKL)+; and iNKT17 (Zbtb16-int, Tbx21−, Gata3−, Rorc+, Foxp3−, Maf-low, Cd24−, Cd44+, Klrb1-low/−, Il2−, il4−, Ifng−, Il17+, Il10−, Il21−, Tgfbr2+, Tnfsf11+), the liver iNKT cells of non-treated NOD.c3c4 mice appeared to be rather unique (Zbtb16+, Tbx21+, Gata3+, Rorc-low, Foxp3−, Maf-low, Cd24-low, Cd44+, Klrb1+, Il2−, Il4-low, Ifng+, Il17−, Il10−, Il21−, Il2rb+, Il17rb-low, Tgfbr2+, Mirlet7−, Znf683−, Tnfsf11−). Remarkably, the liver iNKT cells from treated animals were somewhat similar to the latter, except that they were Rorc−, Maf-high, Il10-high, Il21-high, Il2rb+, Il17rb− and Tgfbr2-low. […] The liver iNKT cells of treated mice were also different from αGalCer-induced NKT10 cells, based on available gene expression data (Il10+, Klrb1-low, Nfil3+ (E4BP4, which regulates IL-10 and IL-13 expression), Nrp1+, Itga4+, Itgae−, Ctla4+, Fr4+, Bcl6−, Il7r+, Slamf6-high, Icos+) (Sag et al., 2014). Unlike these iNKT10 cells, the liver iNKT cells from treated mice were Nfli3−, Nrp1-low, Fr4−, Bcl6-low and Il7r-low. […] These observations were substantiated by comparing the liver iNKT RNAseq data from αGalCer/CD1d-NP-treated and untreated mice to iNKT1, iNKT2, iNKT10 and iNKT17 RNAseq data from Engel et al. (Engel, I., et al. (2016). “Innate-like functions of natural killer T cell subsets result from highly divergent gene programs” Nat. Immunol. 17, 728-739.) (FIG. 6A to 6D)
To ascertain if some of the gene expression differences that were observed between the liver iNKT cells of αGalCer/CD1d-NP-treated and untreated mice were driven, at least in part, by their unique transcriptional factor expression profile, which transcription factors were associated with expression of differentially expressed genes was determined.
Consequently, these αGalCer/CD1d-NP-induced liver iNKT cells are called iNKTR1 cells.

[7] = test system: wild-type NOD.c3c4 mice; experiment: Cytokine/cytokine receptor blockade of therapeutic activity in treated NOD.c3c4 mice; format: in vivo, mouse
[8] = test system: B-cells; experiment: Breg cell formation from transferred Il10-eGFP B cells in treated NOD.c3c4 mice; format: in vivo, mouse; conditions: within 7 days of transfer; B-cells pulsed with αGalCer or not
Text: This was done by transferring αGalCer-pulsed or non-pulsed B cells carrying an eGFP transgene in the Il10 locus into αGalCer/CD1d-NP-treated or untreated NOD.c3c4 mice, and enumerated the frequency of transferred CD5+ and CD1d^high B-cells that acquired eGFP expression within 7 days. […] Thus, αGalCer/CD1d-NP treatment triggers iNKTR1 cell formation which then drive Breg cell formation by recognizing endogenous B-cell antigenic ligand(s) in a CD1d-restricted manner.

[9] = flow cytometry, vs liver iNKT cells of control (untreated or Cys-NP-treated) mice, FIG. 4
[10] = treated NOD.c3c4 mice, not shown
[11] = RNAseq, negative in liver iNKT cells of untreated mice
[12] = RNAseq, treated mice, unlike iNKT10 cells
[13] = RNAseq, treated vs untreated mice

Substance: αGalCer/CD1d-NP: nanoparticles coupled to CD1d molecules whose binding groove is loaded with alpha-galactosylceramide (KRN7000)
- suppression of presentation of IGRP206-214 peptide to cognate TCR-transgenic CD8+ T-cells [1]: could suppress
- CD4/CD8 phenotype of splenic and liver-associated iNKT cells ([2]; at the expense of CD4−CD8− iNKT cells, FIG. 3): enriched for CD4+CD8− iNKTs
- CD69 level on iNKT cells [2, 9]: significantly higher levels
- CD49d level on iNKT cells [2, 9]: significantly higher levels
- Lag-3 level on iNKT cells [2, 9]: significantly higher levels
- PD1 level on iNKT cells [2, 9]: significantly higher levels
- circulating frequency of iNKT cells [2, 10]: slight increase
- iNKT content in spleen and lymph nodes (liver-draining and not) [2, 10]: slight decrease
- effect on spontaneous PBC-like disease [3]: profound suppressive effect
- B-cell killing through iNKT-B-cell interactions ([4]; 4 days after the last dose): did not appear to result in B-cell killing
- interaction of liver iNKT cells with B-cells ([4]; 4 days after the last dose, anti-CD19 labelled B-cells): seeking and engaging
- number of liver iNKT cells ([4]; bi-weekly treatment, vs untreated mice): massive increase
- motility of liver iNKT cells ([4]; imaged 4 days after the last dose): highly motile
- motility of liver iNKT cells ([4]; imaged within 4 hours of a dose): stopped moving
- transfer of disease protection by liver iNKT cells from treated mice [5]: could transfer disease protection
- expression levels of compared genes in induced liver iNKT cells vs TR1 cells ([6]; 66 genes, normalized gene counts, FIG. 8): highly similar levels of expression
- genes with >4-fold differences in expression compared with TR1 cells ([6]; FIG. 8, number of genes): 66
- IL-10 (Il10) expression in liver iNKT cells ([6]; RNA, treated vs untreated mice): high upregulation; also recorded: Il10-high; also recorded: several hundred-fold higher levels
- IL-21 (Il21) expression in liver iNKT cells ([6]; RNA, treated vs untreated mice): Il21-high; also recorded: high upregulation; also recorded: several hundred-fold higher levels
- CTLA4 (Ctla4) expression in liver iNKT cells [6, 11]: high levels; also recorded: high upregulation
- Itga4 (CD49d) expression in liver iNKT cells [6, 11]: high levels
- Lag3 expression in liver iNKT cells [6, 11]: high levels; also recorded: high upregulation
- Slamf6 expression in liver iNKT cells [6, 11]: high levels
- Bcl6 expression in liver iNKT cells ([6]; RNAseq, treated mice): Bcl6-low; also recorded: low levels
- Ccr6 expression in liver iNKT cells ([6]; RNAseq, treated mice): significantly downregulated
- Il7r expression in liver iNKT cells ([6]; RNAseq, treated mice): significantly downregulated; also recorded: Il7r-low
- Itgae (CD103) expression in liver iNKT cells ([6]; RNAseq, treated mice): significantly downregulated
- Nrp1 expression in liver iNKT cells ([6]; RNAseq, treated mice): Nrp1-low
- Tnfrsf14 (BTLA) expression in liver iNKT cells ([6]; RNAseq, treated mice): significantly downregulated
- Fr4 expression in liver iNKT cells [6, 12]: Fr4−
- Nfil3 expression in liver iNKT cells [6, 12]: Nfli3−
- Cxcr5 expression in liver iNKT cells ([6]; RNAseq, treated mice, unlike iNKT-FH cells): lack expression
- Gata3 expression in liver iNKT cells [6, 13]: significantly upregulated
- PD1 expression in liver iNKT cells [6, 13]: high upregulation
- TIGIT expression in liver iNKT cells [6, 13]: high upregulation
- Vdr expression in liver iNKT cells [6, 13]: significantly upregulated
- c-maf (Maf) expression in liver iNKT cells [6, 13]: high upregulation; also recorded: Maf-high; also recorded: significantly upregulated
- Il2rb expression in liver iNKT cells ([6]; RNAseq, untreated: Il2rb+): Il2rb+
- Il17rb expression in liver iNKT cells ([6]; RNAseq, untreated: Il17rb-low): Il17rb−
- Rorc expression in liver iNKT cells ([6]; RNAseq, untreated: Rorc-low): Rorc−
- Tgfbr2 expression in liver iNKT cells ([6]; RNAseq, untreated: Tgfbr2+): Tgfbr2-low
- differentially expressed genes shared by the TR1 cells ([6]; of 238, comparison of RNA-seq profiles): 91
- differentially expressed genes also upregulated in cognate TR1-like CD4+ T-cells of pMHCII-NP-treated mice ([6]; of 238, number of genes): 138
- downregulated genes co-regulated by Maf, Gata3 and Vdr ([6]; of the 71 downregulated, FIG. 7): none
- upregulated protein-coding genes co-regulated by Maf, Gata3 and Vdr ([6]; of the 135 upregulated, FIG. 7): 66
- differentially expressed genes also upregulated in cognate TR1-like CD4+ T-cells of pMHCII-NP-treated mice ([6]; share of 238 genes): 58%
- number of differentially expressed genes in liver iNKT cells ([6]; treated vs untreated mice): 238
- number of downregulated protein-coding genes in liver iNKT cells ([6]; treated vs untreated mice): 71
- number of upregulated protein-coding genes in liver iNKT cells ([6]; treated vs untreated mice): 135
- effect of IL-21R blockade on therapeutic activity ([7]; mouse, in vivo): abrogated
- inhibition of therapeutic activity by IFNγ blockade ([7]; wild-type NOD.c3c4 mice): not
- inhibition of therapeutic activity by IL-4 blockade ([7]; wild-type NOD.c3c4 mice): to a lesser extent
- inhibition of therapeutic activity by IL-10 blockade ([7]; wild-type NOD.c3c4 mice): partially inhibited
- conversion of transferred B-cells into IL-10/eGFP-expressing CD1d-high/CD5+ Breg cells [8]: Breg cell formation in treated, but not untreated animals; also recorded: can trigger the conversion
